Patent US12102685B2, “Immodulator peptides covalently modified with small molecules” (priority 2020, dated 2024)

Tested on: rat scald model
Assay: Rat scald model, N-terminally modified nephrilin-iron complexes (x5B)
Assay type: in vivo, Sprague Dawley rats
Conditions: male rats, burn, 2 mg/kg peptide complexed with ferric iron, sc days 1-7
Experimental: Effect of N-terminal modifications on the efficacy of nephrilin IM3N1 peptide in the rat scald model. In this study, five nephrilin-iron binary complexes were compared: IM3N1 (unmodified) and the following: IM3N1vlp (valproic acid), IM3N1dec (decanoic acid), IM3N1fen (fenofibric acid), and IM3N1ibu (ibuprofen). Adult male Sprague Dawley rats (300 gm, Charles River Laboratories, Wilmington, MA, USA) were injected with peptides formulated with equimolar metal ferric iron once daily by subcutaneous bolus injection, days 1-7.
Treatment group sizes were (n=6) for each group: group S=sham-treated; group B=burn+vehicle; group N1=burn+2 mg/kg nephrilin IM3N1; group N1V=burn+2 mg/kg IM3N1vlp; group N1D=burn+2 mg/kg IM3N1dec; group N1F=burn+2 mg/kg IM3N1fen; group N1I=burn+2 mg/kg IM3N1ibu. The first dose was administered after completion of the scald procedure. Injection volume was 400 uL. Control animals received the same volume of vehicle. Rat scald model was performed and measurements taken as described in Experiment x5A.

RGVTEDYLRLETLVQKVVSKGFYKKKQCRPSKGRKRGFCW [IM3N1]
1: early inflammation (24-hr plasma IL-6): 38.5 ± 27.8 pg/mL
2a: 14-day plasma inflammasome marker IL18: 220.4 ± 32.1 pg/mL
2b: 14-day plasma inflammasome marker IL1b: 52.9 ± 7.8 pg/mL
3a: 14-day plasma hyperangiogenesis marker VEGF-A: 37.8 ± 15.3 pg/mL
3b: 14-day plasma hyperangiogenesis marker CCL5: 248.3 ± 29.7 pg/mL
3c: 14-day plasma hyperangiogenesis marker CXCL5: 855 ± 233 pg/mL
4: glycemic control, 14-day GTT (AUC): 136.4 ± 69.2 mg·dL·h
5: kidney function, 14-day plasma creatinine: 0.31 ± 0.09 mg/dL
6: systemic oxidative stress, 14-day plasma OHDG: 374 ± 187 pg/mL
7: weight loss (slope): 2.99 ± 0.53
3d: hyperangiogenesis marker PctRedPix: 6.53 ± 3.16
